Assay results: the supplement of paper PMC4862054

Experiments:
Conditions in all cases: incubation time: 72 h
[1] = system: CAL-120; experiment: normalised response (% of control), CellTiter-Glo; higher = more viable cells (100 = DMSO, 0 = benzethonium chloride kill control)
Procedure, shortened: (§1)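 Each entry is the normalised signal at a single concentration within a series. The series comprised 5 concentrations in 10-fold steps over a compound-specific 10,000-fold range, placed in 384-well plates into which breast cancer cell lines were seeded as 20 µl suspension and incubated 72 h. CellTox Green (485/520 nm) fluorescence and then CellTiter-Glo luminescence were read, with signals normalised per plate to 0.1 % DMSO (100) and a positive kill control (0).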

[2] = system: MFM-223; experiment: as above
Procedure, shortened: as §1

[3] = system: CAL-85-1; experiment: as above
Procedure, shortened: as §1

[4] = system: BT-474; experiment: as above
Procedure, shortened: as §1

[5] = system: CAL-148; experiment: as above
Procedure, shortened: as §1

[6] = system: MCF-10A; experiment: as above
Procedure, shortened: as §1

[7] = system: HCC1143; experiment: as above
Procedure, shortened: as §1

[8] = system: HCC1599; experiment: as above
Procedure, shortened: as §1

[9] = system: MDA-MB-468; experiment: as above
Procedure, shortened: as §1

[10] = system: HDQ-P1; experiment: as above
Procedure, shortened: as §1

[11] = system: DU-4475; experiment: as above
Procedure, shortened: as §1

[12] = system: HCC1937; experiment: as above
Procedure, shortened: as §1

[13] = system: BT-549; experiment: as above
Procedure, shortened: as §1

[14] = system: Hs578T; experiment: as above
Procedure, shortened: as §1

[15] = system: MDA-MB-231; experiment: as above
Procedure, shortened: as §1

[16] = system: SK-BR-3; experiment: as above
Procedure, shortened: as §1

[17] = system: CAL-51; experiment: as above
Procedure, shortened: as §1

[18] = system: MDA-MB-453; experiment: as above
Procedure, shortened: as §1

[19] = system: MDA-MB-436; experiment: as above
Procedure, shortened: as §1

[20] = system: CAL-120; experiment: normalised viability (% of control), CellTiter-Blue; higher = more viable cells (100 = DMSO, 0 = benzethonium chloride kill control)
Procedure, shortened: (§2)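 The reported figure is normalised viability at a single listed concentration of the series. Breast cancer cell lines (20 µl suspension) went onto 384-well plates holding compound in 5 µl medium for 72 h. CellTiter-Blue (2.5 µl, 2 h, 37 °C) was read by fluorescence at 560/590 nm, and each plate was scaled to vehicle at 100 and a positive kill control at 0.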

[21] = system: MFM-223; experiment: as above
Procedure, shortened: as §2

[22] = system: CAL-85-1; experiment: as above
Procedure, shortened: as §2

[23] = system: BT-474; experiment: as above
Procedure, shortened: as §2

[24] = system: CAL-148; experiment: as above
Procedure, shortened: as §2

[25] = system: HCC1143; experiment: as above
Procedure, shortened: as §2

[26] = system: HCC1599; experiment: as above
Procedure, shortened: as §2

[27] = system: MDA-MB-468; experiment: as above
Procedure, shortened: as §2

[28] = system: HDQ-P1; experiment: as above
Procedure, shortened: as §2

[29] = system: DU-4475; experiment: as above
Procedure, shortened: as §2

[30] = system: HCC1937; experiment: as above
Procedure, shortened: as §2

[31] = system: BT-549; experiment: as above
Procedure, shortened: as §2

[32] = system: Hs578T; experiment: as above
Procedure, shortened: as §2

[33] = system: MDA-MB-231; experiment: as above
Procedure, shortened: as §2

[34] = system: SK-BR-3; experiment: as above
Procedure, shortened: as §2

[35] = system: CAL-51; experiment: as above
Procedure, shortened: as §2

[36] = system: MDA-MB-453; experiment: as above
Procedure, shortened: as §2

[37] = system: MDA-MB-436; experiment: as above
Procedure, shortened: as §2

Q: Which results are given for Clc1ccc(C(c2ccccc2Cl)C(Cl)Cl)cc1 (configuration not stated) [Mitotane] (1 nM)?
A: normalised response [1]: 95.2%; normalised response [2]: 97.7%; normalised response [3]: 95.5%; normalised response [4]: 90.7%; normalised response [5]: 99.4%; normalised response [6]: 94.9%; normalised response [7]: 101%; normalised response [8]: 103%; normalised response [9]: 96.4%; normalised response [10]: 97.8%; normalised response [11]: 95.3%; normalised response [12]: 94.5%; normalised response [13]: 108%; normalised response [14]: 102%; normalised response [15]: 93.6%; normalised response [16]: 95.4%; normalised response [17]: 109%; normalised response [18]: 96%; normalised response [19]: 85.8%; normalised viability [20]: 99.2%; normalised viability [21]: 95.1%; normalised viability [22]: 92.4%; normalised viability [23]: 89.9%; normalised viability [24]: 117%; normalised viability [25]: 98%; normalised viability [26]: 112%; normalised viability [27]: 108%; normalised viability [28]: 112%; normalised viability [29]: 104%; normalised viability [30]: 83.8%; normalised viability [31]: 103%; normalised viability [32]: 118%; normalised viability [33]: 99%; normalised viability [34]: 101%; normalised viability [35]: 111%; normalised viability [36]: 107%; normalised viability [37]: 90.9%
